According to ChEMBL document CHEMBL4229477, “Reevaluating the Substrate Specificity of the L-Type Amino Acid Transporter (LAT1)” (J Med Chem, 2018):

target: Large neutral amino acids transporter small subunit 1 (Homo sapiens, UniProt Q01650); assay: Cis-inhibition of human LAT1 expressed in TREx HEK293 cells at 200 uM assessed as inhibition of [3H]-gabapentin uptake preincubated for 3 mins at 37 degC followed by washing with choline buffer and measured after 3 hrs by scintillation counting analysis relative to BCH; assay type: cell-based
Sequence (Q01650 whole entry): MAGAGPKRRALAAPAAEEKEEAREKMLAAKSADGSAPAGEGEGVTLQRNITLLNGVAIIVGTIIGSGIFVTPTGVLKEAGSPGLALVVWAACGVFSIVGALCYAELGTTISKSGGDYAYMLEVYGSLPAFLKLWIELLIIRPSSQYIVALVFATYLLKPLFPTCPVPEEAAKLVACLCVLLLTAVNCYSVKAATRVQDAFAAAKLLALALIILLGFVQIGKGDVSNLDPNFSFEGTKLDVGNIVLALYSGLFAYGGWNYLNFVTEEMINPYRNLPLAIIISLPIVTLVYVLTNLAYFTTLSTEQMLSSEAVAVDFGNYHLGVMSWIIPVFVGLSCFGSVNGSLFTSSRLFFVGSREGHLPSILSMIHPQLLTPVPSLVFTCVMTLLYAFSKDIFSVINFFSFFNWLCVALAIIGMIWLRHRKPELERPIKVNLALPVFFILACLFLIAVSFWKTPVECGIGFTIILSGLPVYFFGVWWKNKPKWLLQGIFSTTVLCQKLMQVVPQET

Question: With C[C@](N)(Cc1ccccc1)C(=O)O as the compound, how does the IC50 read?
Answer: Its IC50 is 130 µM.

Question: CSCC[C@@H](N)C(=O)O was tested. Which IC50 did it give?
Answer: The IC50 was 120 µM.

Question: N[C@@H](Cc1cccc(O)c1)C(=O)O was tested. Which IC50 did it give?
Answer: Its IC50 is 130 µM.

Question: For CC(=O)c1cccc(C[C@H](N)C(=O)O)c1, which IC50 is on record?
Answer: The IC50 was 92 µM.

Question: Which IC50 does the source give for COC(=O)c1ccc(C[C@H](N)C(=O)O)cc1 here?
Answer: Its IC50 is 260 µM.

Question: With N[C@@H](Cc1cn(Cc2ccccc2)cn1)C(=O)O as the compound, how does the IC50 read?
Answer: Its IC50 is 170 µM.

Question: CSCC[C@](N)(Cc1ccccc1)C(=O)O was tested. Which IC50 did it give?
Answer: Its IC50 is 240 µM.

Question: For NCc1cccc(C[C@H](N)C(=O)O)c1, which IC50 is on record?
Answer: Its IC50 is 470 µM.

Question: How did the IC50 turn out when Nc1cccc(C[C@H](N)C(=O)O)c1 was run?
Answer: The IC50 was 101 µM.

Question: How did the IC50 turn out when CNC(=O)c1cccc(C[C@H](N)C(=O)O)c1 was run?
Answer: Its IC50 is 96 µM.

Question: For N[C@@H](Cc1ccncc1)C(=O)O, which IC50 is on record?
Answer: The IC50 was 100 µM.

Question: N[C@@H](Cc1c[nH]cn1)C(=O)O [HISTIDINE] was tested. Which IC50 did it give?
Answer: The IC50 was 20 µM.

Question: N[C@@H](CC1CCCCC1)C(=O)O was tested. Which IC50 did it give?
Answer: The IC50 was 200 µM.

Question: For N[C@H](CC1CCCCC1)C(=O)O, which IC50 is on record?
Answer: Its IC50 is 260 µM.

Question: For CC(C)[C@H](N)C(=O)O [VALINE], which IC50 is on record?
Answer: Its IC50 is 68 µM.

Question: Which IC50 does the source give for CC(C)(C)OC(=O)c1cccc(C[C@H](N)C(=O)O)c1 here?
Answer: The IC50 was 17 µM.

Question: Cc1cc(C[C@H](N)C(=O)O)cc(C(=O)O)c1 was tested. Which IC50 did it give?
Answer: Its IC50 is 680 µM.

Question: Which IC50 does the source give for CC[C@H](C)[C@@H](N)C(=O)O here?
Answer: Its IC50 is greater than 3000 µM.

Question: With N[C@@H](Cc1ccc(O)cc1)C(=O)O [TYROSINE] as the compound, how does the IC50 read?
Answer: The IC50 was 68 µM.

Question: How did the IC50 turn out when N[C@@H](Cc1cccc(C(=O)O)c1)C(=O)O was run?
Answer: Its IC50 is 130 µM.

Question: N[C@@H](Cc1cccc(C(=O)OCCO)c1)C(=O)O was tested. Which IC50 did it give?
Answer: The IC50 was 29 µM.

Question: Which IC50 does the source give for N[C@H](Cc1c[nH]cn1)C(=O)O [D-HISTIDINE] here?
Answer: The IC50 was 460 µM.

Question: Which IC50 does the source give for N[C@H](Cc1c[nH]c2ccccc12)C(=O)O [D-TRYPTOPHAN] here?
Answer: The IC50 was 380 µM.

Question: With Cn1cnc(C[C@H](N)C(=O)O)c1 as the compound, how does the IC50 read?
Answer: Its IC50 is 190 µM.

Question: For CC(C)C[C@H](N)C(=O)O [LEUCINE], which IC50 is on record?
Answer: The IC50 was 85 µM.

Question: With N[C@@H](Cc1ccccn1)C(=O)O as the compound, how does the IC50 read?
Answer: Its IC50 is 160 µM.

Question: Which IC50 does the source give for N[C@@H](Cc1cccnc1)C(=O)O here?
Answer: Its IC50 is 69 µM.

Question: For CC(C)C[C@@H](N)C(=O)O [D-LEUCINE], which IC50 is on record?
Answer: The IC50 was 220 µM.

Question: With CC(C)[C@@H](N)C(=O)O as the compound, how does the IC50 read?
Answer: Its IC50 is greater than 50000 µM.

Question: For CC(=O)Nc1cccc(C[C@H](N)C(=O)O)c1, which IC50 is on record?
Answer: The IC50 was 110 µM.

Question: For CC[C@H](C)[C@H](N)C(=O)O [ISOLEUCINE], which IC50 is on record?
Answer: Its IC50 is 140 µM.

Question: COC(=O)c1cc(C)cc(C[C@H](N)C(=O)O)c1 was tested. Which IC50 did it give?
Answer: Its IC50 is 95 µM.

Question: C[C@@](N)(Cc1ccccc1)C(=O)O was tested. Which IC50 did it give?
Answer: Its IC50 is 810 µM.

Question: N[C@@H](Cc1c[nH]c2ccccc12)C(=O)O [TRYPTOPHAN] was tested. Which IC50 did it give?
Answer: Its IC50 is 160 µM.

Question: How did the IC50 turn out when N[C@@H](Cc1cccc(CO)c1)C(=O)O was run?
Answer: Its IC50 is 83 µM.

Question: With COC(=O)Cc1cccc(C[C@H](N)C(=O)O)c1 as the compound, how does the IC50 read?
Answer: Its IC50 is 76 µM.

Question: For N[C@H](Cc1ccc(O)cc1)C(=O)O, which IC50 is on record?
Answer: The IC50 was 380 µM.

Question: Which IC50 does the source give for N[C@@H](Cc1ccccc1)C(=O)O [PHENYLALANINE] here?
Answer: Its IC50 is 69 µM.

Question: Which IC50 does the source give for N[C@H](Cc1ccccc1)C(=O)O [D-PHENYLALANINE] here?
Answer: The IC50 was 46 µM.

Question: How did the IC50 turn out when COC(=O)c1cccc(C[C@@H](N)C(=O)O)c1 was run?
Answer: Its IC50 is 150 µM.

Question: With CSCC[C@H](N)C(=O)O [METHIONINE] as the compound, how does the IC50 read?
Answer: Its IC50 is 170 µM.

Question: Which IC50 does the source give for COC(=O)c1cccc(C[C@H](N)C(=O)O)c1 here?
Answer: Its IC50 is 36 µM.
